{
  "source": "patent US20170119742A1",
  "about": "“MEDICAMENT FOR PREVENTING AND/OR TREATING STRESS DISEASES” (ONO PHARMACEUTICAL CO., LTD., priority 2014, published 2017)",
  "key": {"[1]": {"tested_on": "CCK-4 induced stress model", "assay": "Antianxiety effect (2): freezing time in CCK-4 induced stress model", "format": "in vivo", "conditions": "rat, 1 and 3 mg/kg oral, 2 h before CCK-4 3 mg/kg s.c., Steel test", "experimental": "Male LEW/CrlCrlj rats (Charles River Laboratories Japan, Inc., at the time of evaluation: 6 weeks old) were used. In accordance with Rupprecht et al. method (Science, Vol. 325, p. 490-493, 2009), cholecystokinin tetrapeptide (CCK-4) (3 mg/kg) was administered subcutaneously to the rat to induce freezing behavior which was used as an indicator of anxiety. The vehicle (0.5 w/v % methylcellulose 400 cP solution) or the compound of the present invention (1 or 3 mg/kg) was orally administered to the rat. Two hours after the administration, CCK-4 (3 mg/kg) was subcutaneously administered. Two minutes after the administration of CCK-4, the front paws of the rat were placed on a wooden block of height 7 cm. […] Instead of CCK-4, the normal group was administered 1% dimethyl formamide which is the vehicle of CCK-4. Cut-off time was set to 120 seconds. This trial was carried out a total five times at about 2 minute intervals, and the sum of the freezing time was calculated."}, "[2]": {"assay": "Plasma concentration in monkeys (ex vivo occupancy study)", "conditions": "male, rhesus monkey, once on day 4", "experimental": "The vehicle (0.5 w/v % methylcellulose 400 cP solution) or the compound of the present invention (0.4 or 1 mg/kg) was orally administered twice daily for 3 days, once on day 4 to male rhesus monkeys (Shin Nippon Biomedical Laboratories, Ltd., at the time of use: 4 to 6 kg). After 2 hours of the final administration, in the same manner as Biological example 1, brain TSPO occupancy of the compound of the present invention relative to the specific binding of the vehicle control group was measured by measuring the specific binding amount of [3H] PBR28 on brain (anterior cingulate cortex, caudate nucleus, amygdala, hippocampus and occipital lobe) homogenates (n=3 in vehicle control group, n=5 in each the compound of the present invention treated group). As a result, the average TSPO occupancy of brain 5 sites was 37.9 and 56.6% in 0.4 and 1 mg/kg group of the compound of the present invention. The average plasma concentration of the compound of the present invention was 23.9 and 154 ng/mL in 0.4 and 1 mg/kg group."}, "brain TSPO": {"target": "T1, brain TSPO (Homo sapiens, UniProt P30536)", "T1 construct": "from tissue; host or cells: living human brain (PET, healthy adults)", "T1 sequence (P30536 whole entry)": "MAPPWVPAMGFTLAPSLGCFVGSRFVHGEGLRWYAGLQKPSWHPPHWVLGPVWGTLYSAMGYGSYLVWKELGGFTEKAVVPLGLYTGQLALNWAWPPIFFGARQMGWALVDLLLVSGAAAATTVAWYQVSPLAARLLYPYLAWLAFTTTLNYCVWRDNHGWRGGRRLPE", "assay": "Prediction of brain TSPO occupancy in steady state, once daily in humans (Biological example 8)", "conditions": "for ROmax (%) Predicted 5 percentile / ROmax (%) Predicted 95 percentile / ROmax (%) Predicted median: maximum brain TSPO occupancy; for ROmin (%) Predicted 5 percentile / ROmin (%) Predicted 95 percentile / ROmin (%) Predicted median: minimum brain TSPO occupancy", "text": "Further, a transition in the plasma concentration of the compound of the present invention, in a steady state when administered once daily, was predicted. And brain TSPO occupancy was predicted by using the relationship between plasma concentration and brain TSPO occupancy that shown in FIG. 5."}, "[3]": {"tested_on": "female diarrhea-type IBS patients", "assay": "HAM-A (Hamilton Anxiety Scale) in the clinical trial of Biological example 10", "format": "in vivo, human", "conditions": "60 mg treatment", "experimental": "In the clinical trial of Biological example 10, the therapeutic effect of the compound of the present invention 60 mg treatment on depression and anxiety-related diseases were evaluated using PSS (Perceived Stress Scale) (refer to Journal of Health and Social Behavior, 24, 386-396, 1983), HAM-A (Hamilton Anxiety Scale) (refer to The British journal of medical psychology, 32, 50-55, 1959) and HAM-D (Hamilton Depression scale) (refer to Journal of Neurology, Neurosurgery and Psychiatry, 23, 56-62, 1960) as rating scales."}},
  "data": [
    {"compound": "COc1cc(Cl)ccc1[C@H]1c2[nH]c3cccc(F)c3c2C2(CC2)CN1C(C)=O", "note": "[the compound of the present invention, (1S)-2-acetyl-1-(4-chloro-2-methoxyphenyl)-5-fluoro-1,2,3,9-tetrahydrospiro[β-carboline-4,1′-cyclopropane]]", "values": [
      {"measurement": "freezing time vs. vehicle control group", "setting": "[1]", "result": "shortened this extended freezing time significantly"},
      {"measurement": "concentration at 2 h", "setting": "[2]; 0.4 mg/kg oral twice daily 3 days", "result": 23.9, "unit": "ng/mL"},
      {"measurement": "concentration at 2 h", "setting": "[2]; 1 mg/kg oral twice daily 3 days", "result": 154, "unit": "ng/mL"},
      {"measurement": "ROmax (%) Predicted 5 percentile", "setting": "brain TSPO; dose 1 mg", "result": 28.3, "unit": "%"},
      {"measurement": "ROmax (%) Predicted 95 percentile", "setting": "brain TSPO; dose 1 mg", "result": 48.8, "unit": "%"},
      {"measurement": "ROmax (%) Predicted median", "setting": "brain TSPO; dose 1 mg", "result": 38.4, "unit": "%"},
      {"measurement": "ROmin (%) Predicted 5 percentile", "setting": "brain TSPO; dose 1 mg", "result": 11.5, "unit": "%"},
      {"measurement": "ROmin (%) Predicted 95 percentile", "setting": "brain TSPO; dose 1 mg", "result": 30.5, "unit": "%"},
      {"measurement": "ROmin (%) Predicted median", "setting": "brain TSPO; dose 1 mg", "result": 19.4, "unit": "%"},
      {"measurement": "ROmax (%) Predicted 5 percentile", "setting": "brain TSPO; dose 5 mg", "result": 60.5, "unit": "%"},
      {"measurement": "ROmax (%) Predicted 95 percentile", "setting": "brain TSPO; dose 5 mg", "result": 84.6, "unit": "%"},
      {"measurement": "ROmax (%) Predicted median", "setting": "brain TSPO; dose 5 mg", "result": 72.0, "unit": "%"},
      {"measurement": "ROmin (%) Predicted 5 percentile", "setting": "brain TSPO; dose 5 mg", "result": 38.0, "unit": "%"},
      {"measurement": "ROmin (%) Predicted 95 percentile", "setting": "brain TSPO; dose 5 mg", "result": 67.7, "unit": "%"},
      {"measurement": "ROmin (%) Predicted median", "setting": "brain TSPO; dose 5 mg", "result": 52.5, "unit": "%"},
      {"measurement": "ROmax (%) Predicted 5 percentile", "setting": "brain TSPO; dose 10 mg", "result": 69.6, "unit": "%"},
      {"measurement": "ROmax (%) Predicted 95 percentile", "setting": "brain TSPO; dose 10 mg", "result": 94.2, "unit": "%"},
      {"measurement": "ROmax (%) Predicted median", "setting": "brain TSPO; dose 10 mg", "result": 80.9, "unit": "%"},
      {"measurement": "ROmin (%) Predicted 5 percentile", "setting": "brain TSPO; dose 10 mg", "result": 52.8, "unit": "%"},
      {"measurement": "ROmin (%) Predicted 95 percentile", "setting": "brain TSPO; dose 10 mg", "result": 81.0, "unit": "%"},
      {"measurement": "ROmin (%) Predicted median", "setting": "brain TSPO; dose 10 mg", "result": 67.1, "unit": "%"},
      {"measurement": "ROmax (%) Predicted 5 percentile", "setting": "brain TSPO; dose 20 mg", "result": 75.1, "unit": "%"},
      {"measurement": "ROmax (%) Predicted 95 percentile", "setting": "brain TSPO; dose 20 mg", "result": 100.0, "unit": "%"},
      {"measurement": "ROmax (%) Predicted median", "setting": "brain TSPO; dose 20 mg", "result": 86.4, "unit": "%"},
      {"measurement": "ROmin (%) Predicted 5 percentile", "setting": "brain TSPO; dose 20 mg", "result": 64.6, "unit": "%"},
      {"measurement": "ROmin (%) Predicted 95 percentile", "setting": "brain TSPO; dose 20 mg", "result": 91.5, "unit": "%"},
      {"measurement": "ROmin (%) Predicted median", "setting": "brain TSPO; dose 20 mg", "result": 77.6, "unit": "%"},
      {"measurement": "ROmax (%) Predicted 5 percentile", "setting": "brain TSPO; dose 30 mg", "result": 77.0, "unit": "%"},
      {"measurement": "ROmax (%) Predicted 95 percentile", "setting": "brain TSPO; dose 30 mg", "result": 102.6, "unit": "%"},
      {"measurement": "ROmax (%) Predicted median", "setting": "brain TSPO; dose 30 mg", "result": 88.5, "unit": "%"},
      {"measurement": "ROmin (%) Predicted 5 percentile", "setting": "brain TSPO; dose 30 mg", "result": 69.7, "unit": "%"},
      {"measurement": "ROmin (%) Predicted 95 percentile", "setting": "brain TSPO; dose 30 mg", "result": 94.9, "unit": "%"},
      {"measurement": "ROmin (%) Predicted median", "setting": "brain TSPO; dose 30 mg", "result": 81.8, "unit": "%"},
      {"measurement": "ROmax (%) Predicted 5 percentile", "setting": "brain TSPO; dose 50 mg", "result": 78.7, "unit": "%"},
      {"measurement": "ROmax (%) Predicted 95 percentile", "setting": "brain TSPO; dose 50 mg", "result": 104.0, "unit": "%"},
      {"measurement": "ROmax (%) Predicted median", "setting": "brain TSPO; dose 50 mg", "result": 90.2, "unit": "%"},
      {"measurement": "ROmin (%) Predicted 5 percentile", "setting": "brain TSPO; dose 50 mg", "result": 74.1, "unit": "%"},
      {"measurement": "ROmin (%) Predicted 95 percentile", "setting": "brain TSPO; dose 50 mg", "result": 99.0, "unit": "%"},
      {"measurement": "ROmin (%) Predicted median", "setting": "brain TSPO; dose 50 mg", "result": 85.8, "unit": "%"},
      {"measurement": "ROmax (%) Predicted 5 percentile", "setting": "brain TSPO; dose 60 mg", "result": 78.8, "unit": "%"},
      {"measurement": "ROmax (%) Predicted 95 percentile", "setting": "brain TSPO; dose 60 mg", "result": 104.2, "unit": "%"},
      {"measurement": "ROmax (%) Predicted median", "setting": "brain TSPO; dose 60 mg", "result": 91.0, "unit": "%"},
      {"measurement": "ROmin (%) Predicted 5 percentile", "setting": "brain TSPO; dose 60 mg", "result": 75.0, "unit": "%"},
      {"measurement": "ROmin (%) Predicted 95 percentile", "setting": "brain TSPO; dose 60 mg", "result": 100.1, "unit": "%"},
      {"measurement": "ROmin (%) Predicted median", "setting": "brain TSPO; dose 60 mg", "result": 87.0, "unit": "%"},
      {"measurement": "ROmax (%) Predicted 5 percentile", "setting": "brain TSPO; dose 70 mg", "result": 79.4, "unit": "%"},
      {"measurement": "ROmax (%) Predicted 95 percentile", "setting": "brain TSPO; dose 70 mg", "result": 104.8, "unit": "%"},
      {"measurement": "ROmax (%) Predicted median", "setting": "brain TSPO; dose 70 mg", "result": 91.2, "unit": "%"},
      {"measurement": "ROmin (%) Predicted 5 percentile", "setting": "brain TSPO; dose 70 mg", "result": 76.4, "unit": "%"},
      {"measurement": "ROmin (%) Predicted 95 percentile", "setting": "brain TSPO; dose 70 mg", "result": 101.1, "unit": "%"},
      {"measurement": "ROmin (%) Predicted median", "setting": "brain TSPO; dose 70 mg", "result": 88.2, "unit": "%"},
      {"measurement": "ROmax (%) Predicted 5 percentile", "setting": "brain TSPO; dose 100 mg", "result": 80.1, "unit": "%"},
      {"measurement": "ROmax (%) Predicted 95 percentile", "setting": "brain TSPO; dose 100 mg", "result": 106.1, "unit": "%"},
      {"measurement": "ROmax (%) Predicted median", "setting": "brain TSPO; dose 100 mg", "result": 92.1, "unit": "%"},
      {"measurement": "ROmin (%) Predicted 5 percentile", "setting": "brain TSPO; dose 100 mg", "result": 77.6, "unit": "%"},
      {"measurement": "ROmin (%) Predicted 95 percentile", "setting": "brain TSPO; dose 100 mg", "result": 103.1, "unit": "%"},
      {"measurement": "ROmin (%) Predicted median", "setting": "brain TSPO; dose 100 mg", "result": 90.0, "unit": "%"},
      {"measurement": "HAM-A score, 4th week", "setting": "[3]; Patient A, baseline 18", "result": 4},
      {"measurement": "HAM-A score, Amount of change from baseline", "setting": "[3]; Patient A, baseline 18, 4th week", "result": "−14"},
      {"measurement": "HAM-A score, 4th week", "setting": "[3]; Patient B, baseline 23", "result": 1},
      {"measurement": "HAM-A score, Amount of change from baseline", "setting": "[3]; Patient B, baseline 23, 4th week", "result": "−22"},
      {"measurement": "HAM-A score, 4th week", "setting": "[3]; Patient D, baseline 22", "result": 4},
      {"measurement": "HAM-A score, Amount of change from baseline", "setting": "[3]; Patient D, baseline 22, 4th week", "result": "−18"},
      {"measurement": "HAM-A score, 4th week", "setting": "[3]; Patient E, baseline 18", "result": 5},
      {"measurement": "HAM-A score, Amount of change from baseline", "setting": "[3]; Patient E, baseline 18, 4th week", "result": "−13"}
    ]}
  ]
}
